Literature values in patent US20060147526A1, “Pharmaceutical formulations comprising ß-2 adrenoreceptor agonists and xanthines” (CIPLA LIMTED, priority 2002, published 2006).

Tests used:
[1] = inhalation
[2] = in vivo

Row | Structure (SMILES) | persistent bronchodilation lasting [1] | duration of action [2]
1 | OCc1cc(C(O)CNCCCCCCOCCCCc2ccccc2)ccc1O (centres unmarked) [salmeterol] | over 12 hours | –
2 | CN(C)C(=O)Oc1cc(OC(=O)N(C)C)cc(C(O)CNC(C)(C)C)c1 (centres unmarked) [bambuterol, 5-[2-(tert-butylamino)-1-hydroxyethyl]-m-phenylene-bis(dimethylcarbamate)] | – | 24 h
